# Article PMC12431657, “Discovery and mechanistic insights of dibenzoylmethane as a broad spectrum inhibitor of coronavirus” (PLOS Pathogens, 2025)
# Values joined by “and” are separate entries in the source; they are usually repeats but may differ in a detail not shown here. Equal values may be shown once.
# What was measured:
# HCoV-229E = assay: Antiviral activity in vitro, viral RNA copies by qRT-PCR, HCoV-229E in Huh-7 cells; type: cell-based; conditions: for EC50 (229E, Huh-7): inhibition at the concentration: replicates
# HCoV-OC43 spike protein = assay: Cell-cell fusion assay (HCoV-OC43 spike); type: cell-based; conditions: spike-transfected 293T cells with RD cells
# Procedure: To obtain further insight into the stage at which DBM inhibits the replication of HCoV-OC43 and other HCoVs, RD cells were incubated with compounds, including DBM, remdesivir (RDV), and chloroquine (CQ), at different stages of viral infection. Viral RNA from the supernatant was extracted and quantitatively analysed via qRT-PCR. […] For the viral binding assay, cells were cultured in the presence or absence of DBM at different concentrations for 1 hour before being infected with HCoV-OC43 at an MOI of 50, and then were placed on ice for 2 hours for the viral particles to bind to the membrane of the host cells, followed by washing with PBS. […] In addition to binding to receptors from host cells, the spike proteins of HCoV-OC43 could also trigger membrane fusion when HCoV-OC43 spike plasmid-transfected 293T cells were seeded together with RD cells as target cells, and the addition of DBM had no effect on this process (S5C Fig). To examine whether DBM inhibits viral internalisation, cells were inoculated with HCoV-OC43 for 1 hour on ice before being treated with either DBM or DMSO, and CQ was included to prevent endosomal acidification. […] To determine whether DBM influences viral release, we quantified viral RNA both intracellularly and in the supernatant. […]
# enterovirus EV71 = type: cell-based
# HCoV-OC43 = assay: Immunoplaque assay, viral titres of organs and tissues of infected mice; type: in vivo, BALB/c suckling mice
# Procedure: Next, we characterized the therapeutic efficacy of the DBM in vivo. In this experiment, randomized 5–6-day-old suckling BALB/c mice were orally treated with DBM at concentrations of 500, 200, and 100 mpk 2 hours after being intranasally challenged with HCoV-OC43. Menstruum and VV116 were used as negative and positive controls, respectively. All the mice were sacrificed on Day 5 for organ and sample collection (Fig 4A). The body weight changes of the mice were continuously monitored during the trial. Infection with HCoV-OC43 led to body weight loss in the vehicle-treated mice on Day 5 (Fig 4B). […] The number of viral RNA copies from the brain, spinal cord, lungs, and kidneys were analysed via qRT-PCR, which targeted the HCoV-OC43 nucleocapsid gene sequence. On Day 5, the number of viral RNA copies in the vehicle-treated group reached approximately 10^12 copies in the brain, 10^9 copies in the spinal cord, 10^8 copies in the lungs, and 10^6 copies in the kidney (Fig 4C). In the mice treated with DBM at 500 mpk, the number of viral RNA copies within these organs and tissues was reduced by 1–3 logs compared with the vehicle-treated group. […] Sections of mouse brains, spinal cords, lungs, and kidneys were subjected to immunofluorescence staining with antibodies targeting HCoV-OC43 nucleocapsid proteins.
# Fig 4 In vivo antiviral efficacy of DBM in 5-day-old BALB/c suckling mice infected with HCoV-OC43. A) Schematic of the experimental design for evaluating DBM in suckling mice. Each group consisted of 5-6 suckling mice. The schematic was created by the authors using Adobe Illustrator 2022. B) Body weight changes of mice during the experiment. Body weights were recorded daily and all mice were euthanised on the fifth day after infection. C) Viral RNA copies in the brains, spinal cords, lungs, and kidneys of mice collected on Day 5. After grinding and centrifuging the samples with DMEM, viral copies from the supernatants were tested by qRT-PCR. D) Viral titres in homogenised organs and tissues collected from mice on Day 5. E) Immunofluorescence staining of brain and lung sections from mice treated with different regimens. HCoV-OC43 nucleocapsid proteins were detected by immunofluorescence (green). Cell nuclei were stained with DAPI (blue). Data were statistically analyzed with Student’s T test. *: p ≤ 0.05, **: p ≤ 0.01, ***: p ≤ 0.001, ****: p ≤ 0.0001; ns, not significant. The experiments were repeated three times independently with similar results. […] No numeric values are printed in any panel, and nothing was read off the bars, points or curves.
# RD cells were preseeded onto 24-well plates and incubated at 37 °C for 24 hours until they reached 90% confluence. The supernatants from the homogenized organs and tissues were serially diluted 10-fold in DMEM. Subsequently, 50 μL of each dilution was added to the wells. Following a 1-hour incubation at 37 °C, the inoculum was removed, and 200 μL of overlay medium (DMEM containing 2% FBS and 1.5% carboxymethyl cellulose) was added to the wells. Four days postinfection, the cells were fixed with 4% paraformaldehyde for 2 hours, followed by three washes with phosphate-buffered saline (PBS). The fixed cells were then permeabilized with 0.5% Triton X-100 for 30 minutes and blocked with 5% bovine serum albumin (BSA) for 30 minutes at room temperature. The cells were subsequently incubated with anti-HCoV-OC43 nucleocapsid protein rabbit serum (ABclonal, SA00001–2) as the primary antibody and HRP-conjugated anti-rabbit IgG (Proteintech) as the secondary antibody, followed by staining with a DAB staining kit (TIANGEN, PA110).
structure (smiles),measurement,setting,value
"O=C(CC(=O)c1ccccc1)c1ccccc1 [DBM, dibenzoylmethane]",EC50,"HCoV-229E; Human coronavirus 229E, Huh-7, 24 h, read-out: EC50 HCoV-229E (Huh-7)",6.71 µM
same,"EC50 (229E, Huh-7): inhibition at the concentration",HCoV-229E; conc. 0.1 (unit not given),60.8 and 22.3 and 20.2
same,"EC50 (229E, Huh-7): inhibition at the concentration",HCoV-229E; conc. 0.2 (unit not given),25.5 and 35.2
same,"EC50 (229E, Huh-7): inhibition at the concentration",HCoV-229E; conc. 0.7 (unit not given),37.7 and 44.1
same,"EC50 (229E, Huh-7): inhibition at the concentration",HCoV-229E; conc. 2.2 (unit not given),13.1 and 6.1 and 18.7
same,"EC50 (229E, Huh-7): inhibition at the concentration",HCoV-229E; conc. 6.7 (unit not given),65 and 69.4 and 38.7
same,"EC50 (229E, Huh-7): inhibition at the concentration",HCoV-229E; conc. 20 (unit not given),91.1 and 94.4 and 99.5
same,spike-triggered membrane fusion,HCoV-OC43 spike protein,had no effect
same,antiviral activity against EV71,enterovirus EV71,no antiviral activity
same,Viral load in tissue (Fig4D),"HCoV-OC43; Brain, group G3 DIBEN100, individual mice",2.4E+06 and 2.9E+06 and 1.6E+06 and 1.9E+06 and 2.5E+06 and 2.3E+06
same,Viral load in tissue (Fig4D),"HCoV-OC43; Brain, group G4 DIBEN200, individual mice",2.4E+05 and 2.9E+05 and 1.6E+05 and 2.0E+05 and 2.5E+05
same,Viral load in tissue (Fig4D),"HCoV-OC43; Brain, group G5 DIBEN500, individual mice",5.0E+01 and 0.0E+00 and 3.1E+03
same,viral titres of the organs and tissues,HCoV-OC43; DBM 500 mpk,led to a reduction in viral loads
same,Viral load in tissue (Fig4D),"HCoV-OC43; Kidney, group G3 DIBEN100, individual mice",229.9 and 104.0 and 219.4 and 123.5 and 219.8 and 790.8
same,Viral load in tissue (Fig4D),"HCoV-OC43; Kidney, group G4 DIBEN200, individual mice",0.0
same,Viral load in tissue (Fig4D),"HCoV-OC43; Kidney, group G5 DIBEN500, individual mice",84.6 and 0.0
same,Viral load in tissue (Fig4D),"HCoV-OC43; Lung, group G3 DIBEN100, individual mice",0.0 and 160.4 and 76.7 and 2219.2 and 1455.2
same,Viral load in tissue (Fig4D),"HCoV-OC43; Lung, group G4 DIBEN200, individual mice",275.5 and 0.0 and 394.7
same,Viral load in tissue (Fig4D),"HCoV-OC43; Lung, group G5 DIBEN500, individual mice",0.0 and 290.3
same,Viral load in tissue (Fig4D),"HCoV-OC43; Spinal Cord, group G3 DIBEN100, individual mice",1299.4 and 4131.1 and 125.4 and 477.6 and 568.4 and 1615.1
same,Viral load in tissue (Fig4D),"HCoV-OC43; Spinal Cord, group G4 DIBEN200, individual mice",7747.0 and 4670.7 and 4797.6 and 4510.0 and 4954.8
same,Viral load in tissue (Fig4D),"HCoV-OC43; Spinal Cord, group G5 DIBEN500, individual mice",0.0 and 113.9
